Data: patent publication US20080124809A1, “Method of Interaction Observation” (RIKEN, priority 2004, published 2008)

Assays:
[1] = tested on: anti-DIG antibody; assay: SPR imaging of anti-DIG antibody binding to the immobilized small molecular array; settings: 4 J/cm^2; for binding of anti-DIG antibody to immobilized substance (FIG. 15): Comparative Example 2: irradiated at 245 nm, 50 μg/mL antibody run for 5 minutes; for binding of anti-DIG antibody to immobilized substance (FIG. 12): Example 1: photoimmobilized at 365 nm, 50 μg/mL antibody
[2] = tested on: anti-EST antibody; assay: SPR imaging of anti-EST antibody binding to the immobilized small molecular array; settings: Example 1: photoimmobilized at 365 nm, 4 J/cm^2; 50 μg/mL antibody

binding of anti-EST antibody to immobilized substance (FIG. 13) [2] | Structure (SMILES) | binding of anti-DIG antibody to immobilized substance (FIG. 15) [1] | binding of anti-DIG antibody to immobilized substance (FIG. 12) [1]
– | C[C@H]1O[C@@H](O[C@H]2[C@@H](O)C[C@H](O[C@H]3[C@@H](O)C[C@H](O[C@H]4CC[C@@]5(C)[C@H](CC[C@@H]6[C@@H]5C[C@@H](O)[C@]5(C)[C@@H](C7=CC(=O)OC7)CC[C@]65O)C4)O[C@@H]3C)O[C@@H]2C)C[C@H](O)[C@@H]1O [DIG, digoxin] | observed | obvious
No binding | C[C@]12CCC(=O)C=C1CC[C@@H]1[C@@H]2[C@@H](O)C[C@@]2(C)[C@H]1CC[C@]2(O)C(=O)CO [HCN, Hydrocortisone] | – | –
No binding | CC(=O)[C@H]1CC[C@H]2[C@@H]3CCC4=CC(=O)CC[C@]4(C)[C@H]3CC[C@]12C [PGS, Progesterone] | – | –
– | C[C@H]1O[C@@H](O[C@H]2[C@@H](O)C[C@H](O[C@H]3[C@@H](O)C[C@H](O[C@H]4CC[C@@]5(C)[C@H](CC[C@@H]6[C@@H]5CC[C@]5(C)[C@@H](C7=CC(=O)OC7)CC[C@]65O)C4)O[C@@H]3C)O[C@@H]2C)C[C@H](O)[C@@H]1O [DTN, digitoxin] | observed | obvious

Structure (SMILES) | binding of anti-EST antibody to immobilized substance (FIG. 13) [2] | binding of anti-DIG antibody to immobilized substance (FIG. 15) [1] | binding of anti-DIG antibody to immobilized substance (FIG. 12) [1]
C[C@]12CC[C@@H]3c4ccc(O)cc4CC[C@H]3[C@@H]1CC[C@@H]2O [EST, β-Estradiol] | bound to only the spots of EST | – | –
